Experimental data taken from patent US7074765B2, “Synthetic peptide analogs of Arg-Pro-Pro-Gly-Phe as selective inhibitors of thrombin and thrombin activation of protease activated receptors 1 and 4” (The Regents of the University of Michigan, priority 2003, dated 2006).
Where “and” joins values, the source holds several entries; their conditions need not be identical. Equal entries are not always repeated. Square brackets hold non-standard residues; d marks the D form. Ends that are not written are not given here. Oic = O=C(O)[C@@H]1C[C@@H]2CCCC[C@@H]2N1; Igl = N[C@H](C(=O)O)C1Cc2ccccc2C1; Hyp = O=C(O)[C@@H]1C[C@@H](O)CN1; 2Thi = N[C@@H](Cc1cccs1)C(=O)O

B1: RPPGF (Arg-Pro-Pro-Gly-Phe, SEQ ID NO:4) (peptide)
peptide: RPPGF
modifications: not checked
B2: rOicPGF (D-Arg-Oic-Pro-Gly-Phe) (peptide)
peptide: [dR][Oic]PGF

How the values were obtained:
[1] = system: normal human citrated plasma; assay: thrombin clotting time (TCT); assay type: biochemical; conditions: peptide at the concentration that inhibits platelet aggregation
Description: (§1) The influence of the various peptide formulations used in the present invention on established coagulation-based assays was determined. The activated partial thromboplastin time (APTT) is performed by mixing 0.05 ml normal human citrated plasma with 0.05 ml activated partial thromboplastin reagent purchased from Organon Teknika, Research Triangle Park, N.C. in the absence or presence of a peptide inhibitor. After incubation for 5 min at 37° C., the mixture is recalcified with 0.05 ml of 30 mM calcium chloride and the time to clot formation is measured in an Amelung KC4A instrument (Sigma Chemical Corp, St. Louis, Mo.) (Hasan et al. Thrombosis and Haemostasis. 82, 1182–1187 (1999)). The prothrombin time (PT) is performed by mixing 0.05 ml normal human citrated plasma with 0.05 ml Simplastin (Organon Teknika, Research Triangle Park, N.C.) followed by incubation for 3 min at 37° C. in the absence or presence of a peptide inhibitor. At the addition of 0.05 ml of 30 mM calcium chloride, the time to clot formation is measured in an KC4A instrument (Sigma Chemical Corp, St. Louis, Mo.) (Hasan et al. Thrombosis and Haemostasis. 82, 1182–1187 (1999)). The thrombin clotting time (TCT) is performed by adding 0.1 ml normal human citrated plasma in the absence or presence of a peptide inhibitor and 0.05 ml of a α-thrombin solution such that the final concentration of the thrombin in the entire mixture was 1 nM. Upon addition of the thrombin, the time to clot formation is measured in an KC4A instrument (Sigma Chemical Corp, St. Louis, Mo.). In FIG. 5, peptide TH146 produces a significant prolongation (p<0.05) of the activated partial thromboplastin time at 15 μM, of the prothrombin time at 60 μM, and the thrombin clotting time at 15 μM. In FIG. 6, peptide MAP4-TH146 produced a significant prolongation (p<0.05) of the activated partial thromboplastin time at 0.195 μM, of the prothrombin time at 3.125 μM, and the thrombin clotting time at 0.39 μM.

[2] = system: normal human citrated plasma; assay: prothrombin time (PT); assay type: biochemical; conditions: peptide at the concentration that inhibits platelet aggregation
Description: as §1

[3] = system: platelets in platelet-rich plasma; assay: γ-thrombin-induced platelet aggregation in platelet-rich plasma; assay type: cell-based, human; conditions: minimal concentration that blocked γ-thrombin-induced platelet aggregation in platelet-rich plasma
Description: Fresh whole blood was collected and mixed with 0.013 M sodium citrate and platelet-rich plasma was prepared according to the method of Meloni et al., J. Biol. Chem. 266, 6786 (1991). Platelet-rich plasma with a normalized platelet count between 2–2.5×10^8 platelets/ml was added to a cuvette of an aggregometer (Chronlog Corp., Havertown, Pa.), standardized using the protocol of Meloni et al., supra. Peptides to be examined were added to the cuvette and the mixture stabilized for a few moments. Once the baseline was stabilized, γ-thrombin (10–70 nM) (Haematologic Technologies, Essex Junction, Vt.) was added to determine the minimal concentration of the agonist necessary to achieve full platelet aggregation. All investigations with peptides were performed using threshold concentrations of γ-thrombin. Aggregation was allowed to proceed for 5 minutes before stopping. When ADP-induced platelet aggregation studies were performed, 1–5 μM ADP (Sigma) was added to the cuvette containing platelet-rich plasma.

[4] = system: normal human citrated plasma; assay: activated partial thromboplastin time (APTT); assay type: biochemical; conditions: peptide at the concentration that inhibits platelet aggregation
Description: as §1

[5] = system: normal human lung fibroblasts (NHLF); assay: α-thrombin-induced calcium mobilization in fibroblasts; assay type: cell-based; conditions: 0.1 mM peptide; α-thrombin-induced calcium mobilization in fibroblasts
Description: The second assay developed to assess peptides from the combinatorial libraries uses inhibition of α-thrombin-induced calcium mobilization in fibroblasts. Normal human lung fibroblasts (NHLF) were purchased from Clonetics, San Diego, Calif., an affiliate of Bio-Wittaker, Walkersville, Md. The cytoplasmic free Ca^2+ concentration ([Ca^2+]i) was measured using the fluorescent Ca^2+ indicator fura-2 (Molecular Probes, Inc., Eugene, Oreg.). Suspension of fibroblasts in Hepes-Tyrode's buffer were loaded with fura-2 by incubation at 37° C. with 2 μM fura-2/acetoxymethyl ester for 45 minutes according to the method of Rasmussen et al., J. Biol. Chem. 268, 14322 (1993). The labeled fibroblasts were separated from excess probe by washing by centrifugation at 1000 rpm (180×g). Aliquots of the labeled fibroblasts were transferred into a quartz cuvette with a magnetic stirrer, which was then placed in a thermostatically controlled chamber at 37° C. in a fluorescence spectrophotometer (Perkin-Elmer LS50B spectrofluorometer, Chicago, Ill.). Reagents, test peptide, and α-thrombin (0.25–2 nM), were sequentially added directly to the cuvette. The excitation wavelengths varied between 340 and 380 nm. Fluorescence was measured by recording emitted light at 510 nm as reported by Fisher et al., Mol Pharm. 35, 195 (1989). The minimum emission was determined on a solubilized fibroblast sample in the presence of 10 mM EDTA; maximum emission was determined on the same sample with 10 mM Ca^2+ added. The intrafibroblast free Ca^2+ concentration was calculated by the method of Grykiewicz et al., J. Biol. Chem. 260, 3440 (1985). […] The KD for fura-2 was assumed to be 224 nM. Rmax and Rmin are the maximum and minimum fluorescence ratios measured at the end of the experiment, respectively; Sf2 and Sb2 are the fluorescence values at 380 nm in the absence and presence of saturating [Ca^2+], respectively. The reaction was monitored for 3–5 minutes.

[6] = target: T1, recombinant protease activated receptor 1 extracellular domain (rPAR1EC) (Homo sapiens, UniProt P25116); assay: Inhibition of RPPGF-biotin binding to rPAR1EC; conditions: 5 mM peptide, 50 μM RPPGF-biotin (FIG. 7); listed in decreasing order
T1 construct: A portion of the extracellular domain of human PAR1 (Ala^26-Ser^99) (rPAR1EC) was expressed in Escherichia coli; His10-DDDDK (pET19b) (N); made in house; host or cells: E. coli BL21(DE3), pET19b
T1 sequence (P25116 26-99): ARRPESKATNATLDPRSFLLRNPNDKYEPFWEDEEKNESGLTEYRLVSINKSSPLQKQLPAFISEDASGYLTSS

[7] = target: recombinant protease activated receptor 1 extracellular domain (rPAR1EC), human PAR1 Ala26-Ser99, His10-DDDDK fusion (human) (UniProt P25116); assay: cell-based or functional assay
α-thrombin = α-thrombin (Homo sapiens, UniProt P00734); assay: cell-based or functional assay
thrombin = thrombin (Homo sapiens, UniProt P00734); conditions: read-out: Ki (direct inhibitor of thrombin); cited from earlier work
PC-3 cells = assay: Thrombin-induced motility of prostate cancer cells (Boyden chamber); assay type: cell-based; conditions: 10 μM; 2 nM α-thrombin
Description: Motility assays are performed with a modified Boyden chamber (tissue culture-treated, 6.5 mm diameter, 10 μm thickness, 8 μm pores). In the motility assays, 2.5×10^4 cells are plated in the top chamber of non-coated polyethylene teraphthalate (PET) membranes (24-well insert, pore size […]; Becton Dickinson). […] RPMI 10% fetal bovine serum is used as a chemoattractant in the lower chamber. […] The cells that transverse the membranes are stained with Dip-Quick (Jorgensen Laboratories, Loveland, Colo.). Cells in five random fields of view at 200× are counted and expressed as the average number of cells/field of view. […]

[8] = system: MAP4-rOicPGF (β-Ala-Lys-2Lys-4(D-Arg-Oic-Pro-Gly-Phe))
[9] = system: MAP4-RPPGF (β-Ala-Lys-2Lys-4(Arg-Pro-Pro-Gly-Phe))
[10] = system: T2, RPPGF (Arg-Pro-Pro-Gly-Phe, SEQ ID NO:4)
T2 sequence: RPPGF

[11] = target: T3, recombinant protease activated receptor 1 extracellular domain (rPAR1EC), human PAR1 Ala26-Ser99, His10-DDDDK fusion (human), P25116; assay: cell-based or functional assay
T3 chain: T1 sequence (P25116 26-99)

[12] = target: human α-thrombin (human), P00734; assay: cell-based or functional assay

Molecule | TCT (Fold Prolongation over RPPGF) [1] [Fold] | PT (Fold Prolongation over RPPGF) [2] [Fold] | Concentration of Peptide [mM] That Gives 100% Inhibition [3] [mM] | APTT (Fold Prolongation over RPPGF) [4] [Fold] | Ca^2^+ % Inhibition At 0.1 mM Peptide [5] [%] | other results
D-Arg-Idg-Tic-Gly-Phe [rIdgTicGF] | 1.2 | 1.1 | 0.1 | 1.0 | 58.44 | –
D-Arg-Oic-Hyp-Gly-Idg [TH37] | – | – | – | – | – | blocking of RPPGF-biotin binding to rPAR1EC by peptides [6]: blocked
D-Arg-Oic-Hyp-Gly-Idg [rOicHypGIdg] | 1.7 | 1.1 | 0.157 | 1.1 | 36.7 | –
D-Arg-Oic-Oic-Gly-Idg [rOicOicGIdg] | 1.1 | 1.1 | 0.257 | 1.1 | 28.1 | –
D-Arg-Oic-Pro-Gly-Idg ([dR][Oic]PG[Igl]-NH2; N-terminus assumed; SMILES N=C(N)NCCC[C@@H](N)C(=O)N1[C@H](C(=O)N2CCC[C@H]2C(=O)NCC(=O)N[C@H](C(N)=O)C2Cc3ccccc3C2)C[C@@H]2CCCC[C@@H]21) [rOicPGIdg] | 1.5 | 1.1 | 0.129 | 1.1 | 36.2 | blocking of RPPGF-biotin binding to rPAR1EC by peptides [6]: blocked
MAP4-RPPGF (β-Ala-Lys-2Lys-4(Arg-Pro-Pro-Gly-Phe)) (peptide) | – | – | – | – | – | inhibition of thrombocytin cleavage of PAR1 (rPAR1EC, SDS-PAGE) [7]: 0.2 mM and 0.5 mM
MAP4-rOicPGF (β-Ala-Lys-2Lys-4(D-Arg-Oic-Pro-Gly-Phe)) (peptide) | – | – | – | – | – | inhibition of thrombocytin-induced cleavage of recombinant extracellular domain of human PAR1 (SDS-PAGE) [7]: 0.2 mM; concentration giving significant prolongation (p<0.05) of the APTT of normal human plasma (α-thrombin): 0.195 µM; concentration giving significant prolongation (p<0.05) of the PT of normal human plasma (α-thrombin): 3.12 µM; concentration giving significant prolongation (p<0.05) of the TCT of normal human plasma (α-thrombin): 0.39 µM
RPPGFSPFR [Bradykinin, Arg-Pro-Pro-Gly-Phe-Ser-Pro-Phe-Arg] | – | – | – | – | – | Ki (thrombin): 170 to 326 µM
[dR][Oic][Hyp]G[2Thi] [rOicHypGThi] | 1.3 | 1.1 | 0.157 | 1.1 | 38 | –
[dR][Oic][Oic]G[2Thi] [rOicOicGThi] | 1.1 | 1.1 | 0.271 | 1.2 | 18.2 | –
hirudin [reference compound] | – | – | – | – | – | effect on thrombin-induced PC-3 cell motility (PC-3 cells): block
thrombocytin | – | – | – | – | – | thrombocytin (16.7 nM) hydrolysis of 1 mM H-D-Phe-Pip-Arg-paranitroanilide (S2238), 0-1.0 mM MAP4-TH146 [8]: MAP4-TH146 inhibits these enzymes' ability to hydrolyze their substrates; thrombocytin (16.7 nM) hydrolysis of 1 mM H-D-Phe-Pip-Arg-paranitroanilide in the presence of 1 mM MAP4-RPPGF [9]: RPPGF (SEQ ID NO:4) or MAP4-RPPGF inhibits the ability of these enzymes to hydrolyze their substrates; thrombocytin (16.7 nM) hydrolysis of 1 mM H-D-Phe-Pip-Arg-paranitroanilide in the presence of 2 mM RPPGF [10]: RPPGF (SEQ ID NO:4) or MAP4-RPPGF inhibits the ability of these enzymes to hydrolyze their substrates
B1 | – | – | – | – | – | inhibition of thrombocytin cleavage of recombinant human PAR1 extracellular domain (SDS-PAGE) [11]: 0.5 mM and 1 mM
B2 | – | – | – | – | – | concentration giving significant prolongation (p<0.05) of the activated partial thromboplastin time [12]: 15 µM; concentration giving significant prolongation (p<0.05) of the prothrombin time [12]: 60 µM; concentration giving significant prolongation (p<0.05) of the thrombin clotting time [12]: 15 µM; concentration giving significant prolongation of the APTT of normal human plasma [12]: 3.7 µM; concentration giving significant prolongation of the PT of normal human plasma [12]: 30 µM; concentration giving significant prolongation of the TCT of normal human plasma [12]: 3.7 µM
